# According to article PMC11787888, “Development and confirmation of humanized plasma and epithelial lining fluid exposures of meropenem, cefiderocol and tobramycin in a standardized neutropenic murine pneumonia model” (Journal of Antimicrobial Chemotherapy, 2024):
# Like-named read-outs stand apart in the source and are kept apart here.
# Legend:
# [1] = set-up: method as in PMID 33371322, PMID 31724042, PMID 15107149; settings: cited from earlier work
# [2] = set-up: method as in PMID 17283197, PMID 28848004; settings: murine plasma, previously determined; cited from earlier work
# [3] = human plasma, 2 g every 8 h as a 3 h infusion; cited from earlier work
# [4] = Plasma pharmacokinetics in the COMBINE murine neutropenic pneumonia model
# Protocol: (§1) The model followed the COMBINE protocol with laboratory-specific detailed methods as follows.[6] Specific pathogen free CD-1, female mice 6–8 weeks old were acquired from Charles River Laboratories, Inc. (Raleigh, NC, USA). All animals were allowed to acclimatize for 72 h before any study procedures and were housed as groups of six at controlled room temperature in HEPA-filtered cages (Innovive, San Diego, CA, USA). Study rooms were maintained with diurnal cycles (12 h light/12 h dark) and food and water were provided ad libitum.
# (§2) Neutropenia was achieved through 0.2 mL intraperitoneal (IP) administrations of cyclophosphamide 150 mg/kg on day minus 4 and an additional 100 mg/kg on day minus 1. A predictable degree of renal impairment was produced using 5 mg/kg of uranyl nitrate (Electron Microscopy Sciences, Hatfield, PA, USA) dissolved in sterile water administered as a 0.2 mL IP injection on day minus 3. […] Mice were anaesthetised using inhaled isoflurane, manually restrained upright and infected with 50 µL of bacterial suspension via the nares. Each bacterial inoculation suspension was used within 30 minutes of initial preparation.
# (§3) The purpose of these studies was to establish HSRs in both plasma and ELF in the COMBINE murine neutropenic pneumonia model equivalent to clinical doses of meropenem (2 g every 8 h as 3 h infusion),[9] cefiderocol (2 g every 8 h as 3 h infusion)[10] and tobramycin (7 mg/kg as 0.5 h infusion)[11–13] based on unbound (free) exposures.
# (§4) At predefined timepoints (shown in Figures 1–3), groups of six mice had blood sampled via retro-orbital bleeding (two time points, under anaesthesia with isoflurane 2%–3% v/v in 100% oxygen via inhalation) and/or cardiac puncture (one terminal time point). Proparacaine hydrochloride ophthalmic solution 0.5% was applied to the eye (1–2 drops) after blood sampling via retro-orbital bleeding. The volume of blood collected was 0.15 mL per sample via retro-orbital bleeding with subsequent fluid replacement using 0.2 mL normal saline given IP. Mice were euthanized by CO2 exposure before cardiac puncture. Following blood collection by cardiac puncture, but before cervical dislocation, bronchoalveolar lavage (BAL) fluid was collected from the mice at the same time points. A catheter was inserted into the trachea of the mice, and lungs were lavaged with four separate aliquots of 0.4 mL of normal saline. The BAL fluid was withdrawn immediately after injection and pooled for each animal. Pooled BAL was centrifuged for 10 min at 4°C and the supernatant was collected for analysis.
# (§5) Drug concentrations in ELF were estimated by correcting the drug concentration in BAL fluid for the dilution with normal saline during lung lavage using the following formula: compoundELF = compoundBAL × (ureaplasma/ureaBAL), where compoundBAL is the measured drug concentration in the BAL fluid sample and ureaplasma and ureaBAL are the concentrations of urea in paired plasma and BAL fluid samples from each mouse, respectively. Owing to the lack of albumin in BAL fluid, total ELF concentrations were considered unbound.
# (§6) Statistical outliers for each respective analyte were removed by the interquartile range method. Previously reported meropenem, cefiderocol and plazomicin (an aminoglycoside similar to tobramycin) plasma HSRs developed in alternative murine models were used as a baseline.[19],[20] Mathematical modifications were made to the baseline regimens as necessary to achieve translational exposures in the COMBINE model and repeat confirmatory PK studies were undertaken for both plasma and ELF.
# [5] = ELF pharmacokinetics in the COMBINE murine neutropenic pneumonia model
# Protocol: as §1, §2, §3, §4, §5, §6
# [6] = mouse plasma, best-fit one-compartment model
# [7] = mouse ELF, best-fit one-compartment model
structure (smiles),measurement,setting,value
"CC(C)(O/N=C(\C(=O)N[C@@H]1C(=O)N2C(C(=O)[O-])=C(C[N+]3(CCNC(=O)c4ccc(O)c(O)c4Cl)CCCC3)CS[C@H]12)c1csc(N)n1)C(=O)O [Cefiderocol, cefiderocol]",Human plasma protein binding,[1],58%
same,Murine protein binding,[2],31.6%
same,%fT > MIC for a MIC of 1 µg/mL,[3],100%
same,%fT > MIC for a MIC of 2 µg/mL,[3],99%
same,%fT > MIC for a MIC of 4 µg/mL,[3],98%
same,%fT > MIC for a MIC of 8 µg/mL,[3],76%
same,%fT > MIC for a MIC of 16 µg/mL,[3],48%
same,%fT > MIC for a MIC of 32 µg/mL,[3],11%
same,%fT > MIC for a MIC of 64 µg/mL,[3],0%
same,%fT > MIC for a MIC of 128 µg/mL,[3],0%
same,k el,"[4]; female, CD-1, mouse, plasma, sc",0.000206 s⁻¹
same,K a (absorption rate constant into central compartment),[4]; [6],21.71 h⁻¹
same,V plasma (volume of distribution in central compartment),[4]; [6],0.19 L/kg
same,%fT > MIC for a MIC of 1 µg/mL,"[4]; mouse plasma, plasma HSR",100%
same,%fT > MIC for a MIC of 2 µg/mL,"[4]; mouse plasma, plasma HSR",100%
same,%fT > MIC for a MIC of 4 µg/mL,"[4]; mouse plasma, plasma HSR",91%
same,%fT > MIC for a MIC of 8 µg/mL,"[4]; mouse plasma, plasma HSR",76%
same,%fT > MIC for a MIC of 16 µg/mL,"[4]; mouse plasma, plasma HSR",50%
same,%fT > MIC for a MIC of 32 µg/mL,"[4]; mouse plasma, plasma HSR",16%
same,%fT > MIC for a MIC of 64 µg/mL,"[4]; mouse plasma, plasma HSR",0%
same,%fT > MIC for a MIC of 128 µg/mL,"[4]; mouse plasma, plasma HSR",0%
same,k el,"[5]; female, CD-1, mouse, epithelial lining fluid (ELF), sc",0.0002 s⁻¹
same,%fT > MIC for a MIC of 1 µg/mL,"[5]; mouse ELF, ELF HSR",100%
same,%fT > MIC for a MIC of 2 µg/mL,"[5]; mouse ELF, ELF HSR",100%
same,%fT > MIC for a MIC of 4 µg/mL,"[5]; mouse ELF, ELF HSR",85%
same,%fT > MIC for a MIC of 8 µg/mL,"[5]; mouse ELF, ELF HSR",50%
same,%fT > MIC for a MIC of 16 µg/mL,"[5]; mouse ELF, ELF HSR",14%
same,%fT > MIC for a MIC of 32 µg/mL,"[5]; mouse ELF, ELF HSR",0%
same,%fT > MIC for a MIC of 64 µg/mL,"[5]; mouse ELF, ELF HSR",0%
same,%fT > MIC for a MIC of 128 µg/mL,"[5]; mouse ELF, ELF HSR",0%
same,K a-ELF (absorption rate constant into ELF compartment),[5]; [7],1.94 h⁻¹
same,V ELF (volume of distribution in ELF compartment),[5]; [7],0.33 L/kg
